Reference: patent publication US20140243276A1, “SMAC MIMETIC (BIRINAPANT) FOR USE IN THE TREATMENT OF PROLIFERATIVE DISEASES (CANCER)” (TETRALOGIC PHARMACEUTICALS CORPORATION, priority 2011, published 2014)
Values joined by “and” are separate entries in the source; they are usually repeats but may differ in a detail not shown here. Identical values can stand only once. “Also recorded” adds a separate entry of the source.

Assays:
[1] = test system: apoptosis pathway (PARP cleavage, caspase-3/7, cleaved cytokeratin-18); assay: Phase 1 apoptosis pathway activation markers in patients; type: in vivo, human
[2] = test system: primary pancreatic tumors; conditions: mouse, in vivo
Protocol: (§1) An additional 6 primary pancreatic tumors were evaluated at 60 mg/kg.

[3] = test system: primary pancreatic tumors; assay: Patient-derived primary pancreatic cancer explant model
Protocol: as §1

[4] = test system: MDA-MB-231 xenograft; assay: Tumor growth inhibition in MDA-MB-231 xenograft; type: in vivo, mice
[5] = test system: advanced solid tumors and lymphoma; assay: Phase 1 anti-tumor activity in patients with refractory solid tumors or lymphoma; type: in vivo, human
[6] = in vivo
[7] = human, in vivo
[8] = Phase 1 safety and tolerability in patients; conditions: for tolerability: patients
[9] = mouse, in vivo
[10] = mouse, in vivo; remark: listed apart in the source
[11] = test system: primary human melanoma tumor xenograft; assay: Efficacy in primary human melanoma tumor xenograft models
[12] = test system: Panc1; assay: Panc1 immunoblotting and Trypan blue staining, alone and with TRAIL; type: cell-based
[13] = 60 mg/kg i.p. twice weekly, 28 days
[14] = CRC Patient 01-202, dose cohort 0.36 mg/m^2
[15] = CRC Patient 01-801, dose cohort 17.2 mg/m^2
[16] = Melanoma Patient 01-703, dose cohort 11.5 mg/m^2
[17] = patients with solid tumors and lymphoma
[18] = TL32711 combined with carboplatin and paclitaxel

SMILES: CC[C@H](NC(=O)[C@H](C)NC)C(=O)N1C[C@@H](O)C[C@H]1Cc1c(-c2[nH]c3cc(F)ccc3c2C[C@@H]2C[C@H](O)CN2C(=O)[C@H](CC)NC(=O)[C@H](C)NC)[nH]c2cc(F)ccc12 [TL32711, N-{1S-[2R-(6,6′-Difluoro-3′-{4S-hydroxy-1-[2S-(2S-methylamino-propionylamino)-butyryl]-pyrrolidin-2R-ylmethyl}-1H,1′H-[2,2′]biindolyl-3-ylmethyl)-4S-hydroxy-pyrrolidine-1-carbonyl]-propyl}-2S-methylamino-propionamide]
- PBMC PARD cleavage and plasma caspase-3 activity [1]: dose related increase
- activated serum caspase-3/7 and cleaved cytokeratin-18 levels [1]: dose-related
- relation of efficacy to tumor drug exposure [2]: efficacy correlated with tumor drug exposure
- growth inhibition in primary tumor #17624 ([3]; 30 mg/kg i.p. twice weekly): significant growth inhibition
- significant growth inhibition in primary tumor #12872 ([3]; 30 mg/kg i.p. twice weekly): not
- T/C in the 2 primary tumors with suboptimal growth inhibition [3, 13]: ~0.4
- T/C in the 6 primary tumors with significant growth arrest/inhibition [3, 13]: −0.1 to 0.2
- toxicity in the tumor-bearing mice ([3]; all dose levels (30, 45, 60 mg/kg i.p. twice weekly)): No significant toxicity
- dose achieving significant growth inhibition in both #17624 and #12872 ([3]; i.p. twice weekly, dose escalation): >= 45 mg/kg
- cIAP1 inhibition in tumors throughout the dosing interval at which significant tumor growth delay and regressions were observed ([4]; mice bearing MDA-MB-231 xenograft): > 75%
- doses causing significant tumor growth inhibition and regressions ([4]; q3D, MDA-MB-231 xenograft): ≥ 2.5 mg/kg
- cycles received before disease progression [5, 14]: Patient received 6 cycles (24 weeks) of TL32711 before disease
- metastatic lesions decreased on CT scan after 2 cycles [5, 14]: CT scan; 3 of 5 metastatic lesions decreased after 2 cycles of
- response by RECIST criteria after 2 cycles [5, 14]: TL32711 - Stable Disease by RECIST criteria
- clinical improvement during first 2 cycles [5, 15]: Patient had marked clinical improvement of early satiety and pain
- disease progression after 2 cycles [5, 15]: Patient progressed with development of a new liver lesion after
- patient's CEA after 1 cycle [5, 15]: decreased (150 to 90)
- photopenic lesion developed in a hepatic metastasis after 1 cycle [5, 15]: 4-5 cm
- disease progression [5, 16]: Progressed after 3rd cycle with increasing cutaneous lesions
- response by RECIST criteria after 2 cycles [5, 16]: Stable Disease by RECIST criteria after 2 cycles of TL32711
- anti-tumor activity in patients (overall) ([5]; Phase 1 patients): promising early signs of anti-tumor activity; also recorded: Evidence of anti-tumor activity observed
- half-life in the patient ([6]; human): long half-life
- inter-patient variability in Cmax and AUC ([6]; human): moderate to low
- retention (half-life) in tumor tissues ([6]; human): 49 h
- t1/2 in PBMCs ([6]; human): 29 to 35 h
- terminal half-life in plasma ([6]; human): 35 h
- terminal half-life in tumor tissue ([6]; human): 52 h
- plasma terminal t½ ([6]; human, iv): 73 to 79 h
- estimated tumor exposure in patients versus primary human tumor xenograft models in mice [6]: in excess of the measured drug levels
- Fever, Number of Grade 1 or 2 Events (%) [7]: 4 (11%)
- Grade 3 or Grade 4 Adverse Events attributed to study drug [7]: No Grade 3 or Grade 4 Adverse Events attributed to study drug
- Lymphocytopenia, Number of Grade 1 or 2 Events (%) [7]: 2 (6%)
- Nausea, Number of Grade 1 or 2 Events (%) [7]: 5 (14%)
- Rash, Number of Grade 1 or 2 Events (%) [7]: 3 (8%)
- tolerability [8]: well tolerated
- dose-limiting toxicities [8, 17]: no dose-limiting toxicities
- maximum tolerated dose (MTD) [8, 17]: has not been reached
- tolerability ([8]; listed as Compound 15): unexpectedly well tolerated
- tolerability at 63 mg/m^2 ([8]; two patients, 63 mg/m^2 weekly, 3 weeks on/1 week off): not well tolerated
- half-life in plasma [9]: 20 h
- half-life in tumor [9]: 96 h
- TL32711 tumor half-life after increase in exposure [10]: 166 h
- TL32711 tumor half-life before increase in exposure [10]: 56 h
- increase in tumor exposure for a 4-fold increase in dose [10]: 14 fold
- anti-tumor activity of biweekly versus weekly dosing schedule ([11]; 15 mg/kg twice/week versus 30 mg/kg once/week, primary melanoma model): did not result in enhanced anti-tumor activity
- models with tumor regressions [11, 18]: 4 of the 6
- reduction in bodyweight (tolerability) [11, 18]: < 14%
- primary melanoma tumor xenografts with significant tumor growth inhibition ([11]; single agent TL32711, 30 mg/kg IP): 5 of 6 and 5/6
- pro-apoptotic effect ([12]; Panc1, TL32711 alone): dose-dependent pro-apoptotic effect
- pro-apoptotic effect with TRAIL co-incubation ([12]; Panc1, TL32711 with TRAIL): synergized
- cIAP1 degradation and caspase-3 activation ([12]; Panc1, immunoblotting): rapid cIAP1 degradation leading to caspase-3 activation
